For one compound, Kd results are on record in article PMC3285437 (Cell, 2012).

Test [1] concerns the target Kes1 (Kes1/Osh4) (Saccharomyces cerevisiae, UniProt P35844, K242E/K243E/R236E). Briefly: [3H]-cholesterol saturation binding, sterol:detergent micelle assay.
For test [2], the target named is Kes1 (Kes1/Osh4) (Saccharomyces cerevisiae, UniProt P35844). Described as above.

Structures are written as SMILES.

What is called Kd is a measure of binding affinity in units of concentration. Low values mean tighter binding, high ones weaker binding. `CC(C)CCC[C@@H](C)[C@H]1CC[C@H]2[C@@H]3CC=C4C[C@@H](O)CC[C@]4(C)[C@H]3CC[C@]12C` [[^3H]-Cholesterol]: the Kd at Kes1 (Kes1/Osh4) [1] and on Kes1 (Kes1/Osh4) [2] was 500 to 800 nM throughout.
